# Laboratory results published in patent publication US20240309004A1, “SELECTIVE CYCLIN-DEPENDENT KINASE INHIBITORS AND METHODS OF THERAPEUTIC USE THEREOF” (ViroKyne Therapeutics, LLC, priority 2021, published 2024).
# Where two headings read alike, the source gives them in different places.
# Key:
# [1] = system: HSV1 strain E-377; assay: HSV1 primary assay, strain E-377, HFF cells; type: cell-based, Herpes Simplex Virus 1
# Protocol: (§1) Assays were performed in monolayers as described. […] Toxicity was measured using CTG as above. […] Toxicity was measured using CTG as above.
# (§2) Monolayers of HFF cells were prepared in six-well plates and incubated at 37° C. for 2 d to allow the cells to reach confluency. Media was then aspirated from the wells and 0.2 mL of virus-containing solution was added to each of three wells to yield 20-30 plaques in each well. The virus was allowed to adsorb to the cells for 1 h and the plates were agitated every 15 minutes. Compounds were diluted in assay media consisting of MEM with Earl's salts supplemented with 2% FBS, glutamine, penicillin, and gentamycin. Diluted drug was added to duplicate wells and the plates were incubated for various times, depending on the virus used. For HSV-1 and -2, the monolayers were then stained with 1% crystal violet in 20% methanol and the unbound dye removed by washing with dH20. For all other assays, the cell monolayer was stained with 1% Neutral Red solution for 4-6 h then the stain was aspirated and the cells were washed with PBS.
# [2] = system: VZV strain Ellen; assay: VZV primary assay, strain Ellen, HFF cells; type: cell-based, Varicella Zoster Virus
# Protocol: as §1, §2
# [3] = system: HCMV strain GDGr K17 - resistant isolate; assay: HCMV primary assay, resistant isolate GDGr K17, HFF cells; type: cell-based, Human Cytomegalovirus; conditions: Human betaherpesvirus 5, HFF
# Protocol: as §1
# [4] = system: HSV2 strain G; assay: HSV2 primary assay, strain G, HFF cells; type: cell-based, herpes simplex virus 2
# Protocol: as §1, §2
# [5] = system: HSV1 strain DM.2 - resistant isolate; assay: HSV1 primary assay, resistant isolate DM.2, HFF cells; type: cell-based, Herpes Simplex Virus 1; conditions: Human alphaherpesvirus 1, HFF
# Protocol: as §1, §2
# [6] = system: HCMV strain AD169; assay: HCMV primary assay (CPE), strain AD169, HFF cells; type: cell-based, Human Cytomegalovirus
# Protocol: The antiviral activity of the compound against HCMV in the described Primary assay was measured by treating primary Human foreskin fibroblast (HFF) cells infected with HCMV with a range of compound concentrations—description of methods for this assay can be found in section 1.3.2.1. […] . Additional tested assay parameters in this Primary assay can be found in Table 3.2.1 and include EC90, S150, and S190 values—descriptions of those data points can be found in section 3.2.1.
# [7] = system: Murine CMV strain Smith; assay: Murine CMV secondary assay, strain Smith, MEF cells; type: cell-based, Mouse Cytomegalovirus
# Protocol: (§3) Compounds that were positive in the CPE assay were confirmed in a similar assay in 96-well plates according to established laboratory protocols with the compounds added 1 h post infection […]. Additionally, 12 1:3 dilutions were done instead of 6 1:5 dilutions for added accuracy. Genome copy number was determined by qPCR using primers 5′-[…]-3′, 5′ […]-3′, and probe 5′-[…]-3′.
# [8] = system: Murine CMV strain Smith; assay: Murine CMV primary assay, strain Smith, MEF cells; type: cell-based, Mouse Cytomegalovirus
# [9] = system: HCMV strain AD169; assay: HCMV secondary assay (yield reduction), strain AD169, HFF cells; type: cell-based, Human Cytomegalovirus; conditions: Human betaherpesvirus 5, virus strain AD169, HFF cells
# Protocol: (§4) Monolayers of HFF cells were prepared in 96-well plates and incubated at 37° C. for 1 d to allow the cells to reach confluency. Media was then aspirated from the wells and cells infected at a high MOI. At 1 h following infection, the inocula were removed and the monolayers rinsed with fresh media. […] Drug dilutions were added to the wells and the plates were incubated for various times, depending on the virus used and represents a single replication cycle for the virus. A duplicate set of dilutions were also performed but remained uninfected to serve as a cytotoxicity control and received equal compound exposure. Supernatants from each of the infected wells were subsequently titered using CTG in a TCID50 assay to quantify the progeny virus. For HCMV only, viral yield in the supernatants from the infected cells were titered using qPCR with HCMV primers [NT], and probe [NT].
# [10] = Cytotoxicity concurrent with HCMV AD169 primary assay; type: cell-based, human; conditions: human
# [11] = system: MEF cells; assay: Cytotoxicity concurrent with Murine CMV secondary assay; type: cell-based, mouse
# Protocol: as §3
# [12] = Cytotoxicity concurrent with HCMV secondary assay; type: cell-based; conditions: human
# Protocol: as §4
# [13] = Cytotoxicity concurrent with EBV primary assay; conditions: human
# [14] = Cytotoxicity concurrent with Adenovirus primary assay; type: cell-based; conditions: human
# [15] = Cytotoxicity concurrent with VZV Ellen primary assay; type: cell-based; conditions: human
# Protocol: as §1
# [16] = system: Adenovirus Adenoid75 strain; assay: Adenovirus primary assay, Adenoid75 strain, HFF cells; type: cell-based; conditions: unidentified adenovirus; for EC90: read-out: EC90
# [17] = Cytotoxicity concurrent with Adenovirus secondary assay; type: cell-based; conditions: human, Adeno secondary assay, HFF cells
# Protocol: as §4
# [18] = Cytotoxicity concurrent with HSV2 primary assay; type: cell-based; conditions: human
# Protocol: as §1
# [19] = system: Adenovirus Adenoid75 strain; assay: Adenovirus secondary assay (yield reduction), Adenoid75 strain, HFF cells; type: cell-based; conditions: unidentified adenovirus
# Protocol: as §4
# [20] = Cytotoxicity concurrent with HSV1 E-377 primary assay; type: cell-based; conditions: human
# Protocol: as §1
# [21] = system: Epstein-Barr virus Akata strain; assay: Epstein-Barr primary assay, Akata strain, Akata cells; type: cell-based
# [22] = system: HFF cells; assay: Cytotoxicity concurrent with HCMV AD169 primary assay; type: cell-based, human
# [23] = system: VZV strain 15-6-001 resistant isolate; assay: microbe, parasite or virus in culture; type: cell-based, Varicella Zoster Virus; conditions: Human alphaherpesvirus 3, HFF
# Protocol: as §1, §2
# [24] = Cytotoxicity concurrent with VZV 15-6-001 primary assay; type: cell-based; conditions: human, HFF cell line
# Protocol: as §1
# [25] = Metabolic stability in mice liver microsomes; conditions: mouse, microsomes, 1 h
# Protocol: Potassium phosphate buffer (Kphos) was prepared by adding 0.647 g potassium phosphate monobasic (KH2PO4) and 3.527 g potassium phosphate dibasic (K2HPO4) to 400 mL of Milli-Q water. pH of the buffer was adjusted to 7.4 and volume was made up to 500 mL.
# Stock solutions of the test compounds were prepared in DMSO at a concentration of 1 mM.
# To this microsomal mix 1.42 μL (1 mM) of test compound and positive control were spiked, from this mix 70 μL was transferred to 96 well plate and pre-incubated at 37° C. for 5 min. […] The plates were centrifuged at 4000 RPM for 15 min and 100 μL aliquots were submitted for analysis by LC-MS/MS.
# Samples were monitored for parent compound disappearance in MRM mode using LC-MS/MS. The LC-MS/MS conditions and MRM chromatogram will be provided as per client request.
# The peak area ratios of analyte versus internal standard were used to calculate the % remaining at the end of 60 minutes in presence NADPH.
# [26] = target: CDK9/cyclin T1 (Homo sapiens (Human), UniProt P50750); assay: Kinase activity assay, CDK9/cyclin T1; type: biochemical; conditions: Table 3.1.1; 10 μM ATP; 10-dose duplicate, 3-fold serial dilution starting at 10 μM; read-out: Compound IC50 CDK9/cyclin T1
# [27] = Human alphaherpesvirus 1, HSV1 primary assay, strain E-377, HFF cells, read-out: EC50
# [28] = Human alphaherpesvirus 3, VZV primary assay, strain Ellen, cell line HFF, read-out: EC50
# [29] = Human alphaherpesvirus 3, VZV primary assay, strain Ellen, cell line HFF, read-out: EC90
# [30] = Human alphaherpesvirus 2, HSV2 primary assay, strain G, HFF cells, read-out: EC50
# [31] = Human betaherpesvirus 5, HCMV primary assay, virus strain AD169, HFF cells, read-out: EC50
# [32] = Human betaherpesvirus 5, HCMV primary assay, virus strain AD169, HFF cells, read-out: EC90
# [33] = Human alphaherpesvirus 1, HSV1 primary assay, strain E-377, HFF cells, read-out: EC90
# [34] = Akata cells without virus induction
# [35] = Adenovirus primary assay, HFF cells, Adenoid75 strain, read-out: EC50
# [36] = Adenovirus primary assay, HFF cells, Adenoid75 strain
# [37] = Adeno secondary assay, strain Adenoid75, HFF cells, read-out: EC90
# [38] = Human alphaherpesvirus 2, HSV2 primary assay, strain G, HFF cells, read-out: EC90
# [39] = human gammaherpesvirus 4, Epstein-Barr primary assay, Akata strain, Akata cells, read-out: EC50
# [40] = human gammaherpesvirus 4, Epstein-Barr primary assay, Akata strain, Akata cells, read-out: EC90
# [41] = Human betaherpesvirus 5, AD169, HFF
# [42] = human gammaherpesvirus 4, Akata
# Chain of CDK9/cyclin T1 (P50750 whole entry): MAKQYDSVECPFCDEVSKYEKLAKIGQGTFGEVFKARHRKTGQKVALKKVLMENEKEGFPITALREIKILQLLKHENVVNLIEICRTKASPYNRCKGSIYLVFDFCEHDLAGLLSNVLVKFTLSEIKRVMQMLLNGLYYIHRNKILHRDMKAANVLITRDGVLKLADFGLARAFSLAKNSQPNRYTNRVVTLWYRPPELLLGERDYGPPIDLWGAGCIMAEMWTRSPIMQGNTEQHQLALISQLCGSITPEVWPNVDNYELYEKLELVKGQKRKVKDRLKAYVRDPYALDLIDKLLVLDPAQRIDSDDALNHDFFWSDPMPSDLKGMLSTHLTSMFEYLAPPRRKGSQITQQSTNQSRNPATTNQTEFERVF
# Chain of CDK9/cyclin T1 (O60563 whole entry partner): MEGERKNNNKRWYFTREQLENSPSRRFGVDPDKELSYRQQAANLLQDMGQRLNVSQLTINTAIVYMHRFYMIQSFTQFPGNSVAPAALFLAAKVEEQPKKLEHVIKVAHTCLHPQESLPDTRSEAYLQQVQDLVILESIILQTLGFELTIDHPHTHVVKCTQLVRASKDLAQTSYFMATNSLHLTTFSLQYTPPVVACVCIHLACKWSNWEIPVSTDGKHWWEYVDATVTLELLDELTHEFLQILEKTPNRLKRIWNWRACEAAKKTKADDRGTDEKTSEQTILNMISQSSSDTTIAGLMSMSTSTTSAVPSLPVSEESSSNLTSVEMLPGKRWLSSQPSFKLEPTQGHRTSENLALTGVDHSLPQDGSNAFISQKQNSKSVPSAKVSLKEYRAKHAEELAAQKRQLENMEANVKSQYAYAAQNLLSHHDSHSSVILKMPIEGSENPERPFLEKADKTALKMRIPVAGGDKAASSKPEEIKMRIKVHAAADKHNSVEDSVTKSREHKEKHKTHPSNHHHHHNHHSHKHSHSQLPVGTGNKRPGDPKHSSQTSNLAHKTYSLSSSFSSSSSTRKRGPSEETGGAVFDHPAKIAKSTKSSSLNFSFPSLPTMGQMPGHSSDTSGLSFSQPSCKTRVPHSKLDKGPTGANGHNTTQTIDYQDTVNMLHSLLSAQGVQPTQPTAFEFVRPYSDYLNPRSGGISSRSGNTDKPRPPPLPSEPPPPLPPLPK
compound,measurement,setting,value
"Nc1nc2c(ncn2COCCO)c(=O)[nH]1 [Acyclovir, reference compound]",EC50,[1]; [27],2.56 µM
same,EC50,[2]; [28],5.59 µM
same,EC90,[2]; [29],69.4 µM
same,EC50,[3],16.8 µM
same,EC50,[4]; [30],2.56 µM
same,EC50,[5],150 µM
"Nc1nc(O)c2ncn(COC(CO)CO)c2n1 [Ganciclovir, ganciclovir, reference compound]",EC50,[6]; [31],1.78 µM
same,EC90,[6]; [32],5.67 µM
same,EC50,[7],7.4 µM
same,EC90,[7],26 µM
same,EC50,[8],5.48 µM
same,EC90,[8],24.9 µM
same,EC90,[9],3.88 µM
same,CC50,[10]; CC50,150 µM
same,CC50,[11],84.8 μ.M
same,CC50,[12],20 µM
Fc1ccc2c(c1)nn1cnc(NC3CCCOCC3)cc21 (centres unmarked) [VKT-015],EC50,[1]; [27],50 µM
same,EC90,[1]; [33],50 µM
same,CC50 at 72 h,[13]; [34],50 µM
same,EC50,[2]; [28],10 µM
same,EC90,[2]; [29],10 µM
same,CC50,[14],41.8 µM
same,CC50,[15],39.7 µM
same,EC50,[16]; [35],7.13 µM
same,EC90,[16]; [36],10 µM
same,EC50,[6]; [31],10 µM
same,EC90,[6]; [32],10 µM
same,CC50,[17]; uninfected HFF cell monolayers,48.6 µM
same,CC50,[18],50 µM
same,CC50,[10]; CC50,27.7 µM
same,EC90,[19]; [37],17.5 µM
same,EC50,[4]; [30],50 µM
same,EC90,[4]; [38],50 µM
same,CC50,[20],50 µM
same,EC50,[21]; [39],8.73 µM
same,EC90,[21]; [40],29.9 µM
O=S1(=O)CCC(Nc2cc3c4ccc(F)cc4nn3cn2)CC1 [VKT-018],EC50,[1]; [27],50 µM
same,EC90,[1]; [33],50 µM
same,CC50 at 72 h,[13]; [34],50 µM
same,EC50,[2]; [28],50 µM
same,EC90,[2]; [29],50 µM
same,CC50,[14],50 µM
same,CC50,[15],50 µM
same,EC50,[16]; [35],3.69 µM
same,EC90,[16]; [36],50 µM
same,EC50,[6]; [31],50 µM
same,EC90,[6]; [32],50 µM
same,CC50,[17]; uninfected HFF cell monolayers,97.1 µM
same,CC50,[18],50 µM
same,CC50,[10]; CC50,50 µM
same,EC90,[19]; [37],16.4 µM
same,EC50,[4]; [30],50 µM
same,EC90,[4]; [38],50 µM
same,CC50,[20],50 µM
same,EC50,[21]; [39],45.7 µM
same,EC90,[21]; [40],50 µM
NC(=O)CN1CCC(Nc2cc3c4ccc(F)cc4nn3cn2)CC1 [VKT-026],EC50,[1]; [27],10 µM
same,EC90,[1]; [33],10 µM
same,EC50,[2]; [28],10 µM
same,EC90,[2]; [29],10 µM
same,CC50,[14],24.7 µM
same,CC50,[15],22 µM
same,EC50,[16]; [35],7.71 µM
same,EC90,[16]; [36],50 µM
same,EC50,[7],0.17 µM
same,EC90,[7],5.38 µM
same,CC50,[18],29.4 µM
same,EC50,[3],0.87 µM
same,EC90,[3],10 µM
same,CC50,[22]; human,26.9 µM
same,EC50,[4]; [30],10 µM
same,EC90,[4]; [38],50 µM
same,CC50,[11],50 μ.M
same,CC50,[20],10 µM
OCC1CCC(Nc2cc3c4ccc(F)cc4nn3cn2)CC1 (centres unmarked) [VKT-029],EC50,[23],10 µM
same,EC90,[23],10 µM
same,EC50,"[1]; Human alphaherpesvirus 1, HFF",50 µM
same,EC90,"[1]; Human alphaherpesvirus 1, HFF",50 µM
same,CC50 at 72 h,[13],50 µM
same,EC50,"[2]; Human alphaherpesvirus 3, HFF",4.02 µM
same,EC90,"[2]; Human alphaherpesvirus 3, HFF",10 µM
same,CC50,"[14]; Adenovirus primary assay, HFF cells, read-out: CC50",50 µM
same,CC50,[24],47.2 µM
same,CC50,"[15]; VZV Ellen primary assay, cell line HFF, read-out: CC50",45.1 µM
same,EC50,[16]; HFF,5.12 µM
same,EC50,[6]; [41],50 µM
same,EC90,[6]; [41],50 µM
same,CC50,[17],100 µM
same,CC50,"[18]; HSV2 primary assay, HFF cells, read-out: CC50",50 µM
same,CC50,"[10]; HCMV primary assay, HFF cells, read-out: CC50",50 µM
same,EC90,[19]; HFF,3.91 µM
same,EC50,"[4]; Human alphaherpesvirus 2, HFF",50 µM
same,EC90,"[4]; Human alphaherpesvirus 2, HFF",50 µM
same,CC50,"[20]; HSV1 E-377 primary assay, HFF cells, read-out: CC50",50 µM
same,EC50,[21]; [42],4.79 µM
same,EC90,[21]; [42],12.1 µM
"N[C@H]1CC[C@H](Nc2cc3c4ccc(F)cc4nn3cn2)CC1 [VKT-511, (1r,4r)-N1-(7-fluoropyrimido[1,6-b]indazol-3-yl)cyclohexane-1,4-diamine]",EC50,"[6]; HCMV primary assay, virus strain AD169, HFF cells, read-out: EC50",2 µM
same,EC90,"[6]; HCMV primary assay, virus strain AD169, HFF cells, read-out: EC90",2 µM
same,CC50,[22],6.98 µM
same,% Remaining at 60 min,[25],107%
same,IC50,[26],46.5 nM
